According to ChEMBL document CHEMBL1134925, “Exiguamide, a new spirocyclic sesquiterpene from the marine sponge Geodia exigua that inhibits cell fate specification during sea urchin embryogenesis” (Bioorg Med Chem Lett, 2002):
Activity calls are given as the source filed them. The rule behind the calls is not given here.

Tested on: Hemicentrotus pulcherrimus
Assay: Ability of the embryo (sea urchin, Hemicentrotus pulcherrimus) to form spicule deficient plutei when treated with the compound at a concentration of 0.4-12 uM; not active
Type: functional, organism-based

**Q.** How did the Activity turn out when `CC1=C[C@@]2(CC1)[C@H](NC=O)[C@H](C(C)C)CC[C@@H]2C` was run?
**A.** inactive
